# Measurements taken from patent US4758559A, “Pyrrolo[1,2-a] [4,1]benzoxazepine derivatives useful as calmodulin and histamine inhibitors” (Ciba-Geigy Corporation, priority 1986, dated 1988).
# pIC50: −log10 of the molar value.
# Legend:
# [1] = system: diarrhea induced in rats by prostaglandin E2; assay: inhibition of the diarrhea induced in rats by intraperitoneal prostaglandin E2; format: in vivo; conditions: 10 mg/Kg p.o. in the rat
# Experimental: The antidiarrheal effect of the compounds of the invention is determined by measuring the inhibition of the diarrhea induced in rats by the intraperitoneal administration of prostaglandin E2.
# The test is carried out as follows:
# Female Sprague-Dawley rats weighing 200-250 g and fasted for 18 hours are employed. The test compounds are dissolved in dimethylsulfoxide diluted with water to a 30-50% dimethyl sulfoxide concentration and administered orally by gastric lavage in a volume of 1 ml/Kg. Thirty or sixty minutes later, prostaglandin E2 (150 μg) is administered i.p. in a volume of 0.5 ml of water. The decrease in fecal excretion compared to untreated animals is measured for a period of 30 minutes after administration of prostaglandin E2.
# [2] = system: rat stomach parietal cells; assay: inhibition of acid secretion in rat stomach parietal cells (14C-aminopyrine accumulation); format: cell-based; conditions: histamine (1 mM) and isobutyl methylxanthine (0.1 mM)
# Experimental: Inhibition of acid secretion, indicative of antiulcer activity, can be determined in vitro in rat stomach parietal cells as follows:
# Approximately 1×10^6 parietal cells (18-22% enriched) are incubated in a balanced salt solution containing glucose, BSA (bovine serum albumin), 0.1 uCi of ^14 C-aminopyrine, histamine (1 mM), isobutyl methylxanthine (0.1 mM) and the compound to be tested under 95% oxygen at 37° C. for a period of 40 minutes. The cells are then washed, ruptured with distilled water and analyzed by scintillation spectrometry. A decrease in the accumulation of ^14 C-aminopyrine in the cells represents an indirect measure of the inhibition of acid secretion.
# [3] = target: calmodulin (Bos taurus, UniProt P62157); assay: inhibition of the calmodulin induced activation of bovine c-AMP phosphodiesterase; format: biochemical; conditions: in vitro; read-out: concentration inhibiting calmodulin-induced activation of phosphodiesterase by 50%
# Experimental: The calmodulin inhibitory properties indicative of the antisecretory activity of said new compounds are determined in vitro by measuring the inhibition of the calmodulin induced activation of bovine c-AMP phosphodiesterase, according to the method described by J. A. Norman et al, Mol. Pharmacology 16, 1089 (1979).
smiles,measurement,setting,value
"CC1(CN2CCC(n3c(=O)[nH]c4ccccc43)CC2)OCc2ccccc2-n2cccc21 (stereo not drawn) [Example 1, 1,3-Dihydro-1-{1-[(4-methyl-4H,6H,-pyrrolo[1,2-a][4,1]-benzoxazepin-4-yl)-methyl]-4-piperidinyl}-2H-benzimidazol-2-one (1:1)maleate]",prostaglandin E2 induced fecal excretion,[1],reduces prostaglandin E2 induced fecal excretion
same,pIC50,[2],~6.52
same,pIC50,[3],~5.52
